From ChEMBL document CHEMBL4507280 (2021)
Activity calls are given as the source filed them. The rule behind the calls is not given here.

Key:
[1] = molecular target: Mitogen-activated protein kinase kinase kinase 9 (Homo sapiens) (UniProt P80192); conditions: Compound concentration 1000.0 nM
[2] = molecular target: Gamma-aminobutyric acid receptor subunit alpha-1 (Rattus norvegicus) (UniProt P62813); test: GABAA MUSCIMOL CENT Eurofins-Panlabs selectivity data (BI); conditions: Compound concentration 10.0 uM
[3] = molecular target: Aurora kinase B (Homo sapiens) (UniProt Q96GD4); conditions: Compound concentration 1000.0 nM
Aurora kinase B (Homo sapiens), sequence (Q96GD4 whole entry): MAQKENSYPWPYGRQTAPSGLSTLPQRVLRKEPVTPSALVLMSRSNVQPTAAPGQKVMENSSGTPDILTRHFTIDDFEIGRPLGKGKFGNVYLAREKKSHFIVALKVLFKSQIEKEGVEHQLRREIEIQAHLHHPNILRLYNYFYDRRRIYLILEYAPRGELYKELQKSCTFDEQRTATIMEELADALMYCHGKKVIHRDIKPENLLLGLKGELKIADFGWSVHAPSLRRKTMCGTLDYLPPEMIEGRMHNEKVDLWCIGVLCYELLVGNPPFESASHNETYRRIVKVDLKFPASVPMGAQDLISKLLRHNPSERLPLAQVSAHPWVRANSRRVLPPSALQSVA

[4] = molecular target: Phosphatidylinositol 3-kinase catalytic subunit type 3 (Homo sapiens) (UniProt Q8NEB9); conditions: Compound concentration 1000.0 nM
[5] = molecular target: Ephrin type-A receptor 2 (Homo sapiens) (UniProt P29317); conditions: Compound concentration 1000.0 nM
Fatty acid synthase [6] = molecular target: T1, Fatty acid synthase (Homo sapiens, UniProt P49327); test: Inhibition of [14C]acetate incorporation into human H1975 cells; format: cell-based, NCI-H1975
[7] = molecular target: Serine/threonine-protein kinase 33 (Homo sapiens) (UniProt Q9BYT3); conditions: Compound concentration 1000.0 nM
[8] = molecular target: Mitogen-activated protein kinase 13 (Homo sapiens) (UniProt O15264); conditions: Compound concentration 1000.0 nM
Mitogen-activated protein kinase 13 (Homo sapiens), sequence (O15264 whole entry): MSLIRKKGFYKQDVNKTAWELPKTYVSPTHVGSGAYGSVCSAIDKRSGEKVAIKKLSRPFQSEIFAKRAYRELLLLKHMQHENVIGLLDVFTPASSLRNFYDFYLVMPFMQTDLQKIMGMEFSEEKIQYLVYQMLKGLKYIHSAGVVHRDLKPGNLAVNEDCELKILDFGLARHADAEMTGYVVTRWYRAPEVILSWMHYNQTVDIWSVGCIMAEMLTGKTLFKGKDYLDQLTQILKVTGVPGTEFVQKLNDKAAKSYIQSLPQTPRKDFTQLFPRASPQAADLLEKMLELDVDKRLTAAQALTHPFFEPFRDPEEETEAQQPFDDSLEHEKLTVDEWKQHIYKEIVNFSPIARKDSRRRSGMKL

[9] = molecular target: Serine/threonine-protein kinase PLK4 (Homo sapiens) (UniProt O00444); conditions: Compound concentration 1000.0 nM
Serine/threonine-protein kinase PLK4 (Homo sapiens), sequence (O00444 whole entry): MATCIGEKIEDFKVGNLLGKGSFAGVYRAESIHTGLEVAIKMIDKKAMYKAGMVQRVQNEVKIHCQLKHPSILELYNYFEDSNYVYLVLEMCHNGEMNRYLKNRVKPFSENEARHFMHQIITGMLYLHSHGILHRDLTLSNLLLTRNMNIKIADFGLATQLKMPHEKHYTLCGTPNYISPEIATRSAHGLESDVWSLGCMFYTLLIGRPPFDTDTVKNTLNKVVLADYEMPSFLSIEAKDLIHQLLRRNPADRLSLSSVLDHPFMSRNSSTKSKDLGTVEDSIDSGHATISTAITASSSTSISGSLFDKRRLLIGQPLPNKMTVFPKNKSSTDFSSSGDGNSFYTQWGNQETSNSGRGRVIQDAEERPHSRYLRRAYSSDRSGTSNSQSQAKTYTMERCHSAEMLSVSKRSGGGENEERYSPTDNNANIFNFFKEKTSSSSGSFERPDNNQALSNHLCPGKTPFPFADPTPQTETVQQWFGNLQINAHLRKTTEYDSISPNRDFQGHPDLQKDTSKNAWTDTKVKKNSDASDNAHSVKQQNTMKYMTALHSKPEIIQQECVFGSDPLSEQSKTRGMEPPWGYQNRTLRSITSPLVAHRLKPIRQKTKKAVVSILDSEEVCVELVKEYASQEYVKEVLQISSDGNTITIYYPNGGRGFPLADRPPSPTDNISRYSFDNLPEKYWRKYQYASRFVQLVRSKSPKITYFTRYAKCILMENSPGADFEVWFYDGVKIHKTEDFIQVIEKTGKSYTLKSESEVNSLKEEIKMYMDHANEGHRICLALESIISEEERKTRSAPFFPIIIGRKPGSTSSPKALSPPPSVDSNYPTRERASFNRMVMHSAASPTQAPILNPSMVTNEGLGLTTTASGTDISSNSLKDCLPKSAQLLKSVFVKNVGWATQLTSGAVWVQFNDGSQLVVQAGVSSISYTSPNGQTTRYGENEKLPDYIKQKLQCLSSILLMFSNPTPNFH

[10] = molecular target: D(2) dopamine receptor (Homo sapiens) (UniProt P14416); test: D2S/HU Eurofins-Panlabs selectivity data (BI); conditions: Compound concentration 10.0 uM
[11] = molecular target: 5-hydroxytryptamine receptor 7 (Homo sapiens) (UniProt P34969); conditions: Compound concentration 10.0 uM
[12] = molecular target: Pyroglutamylated RF-amide peptide receptor (Homo sapiens) (UniProt Q96P65); test: GPR103 Eurofins-Panlabs selectivity data (BI); conditions: Compound concentration 10.0 uM
[13] = molecular target: D(1A) dopamine receptor (Homo sapiens) (UniProt P21728); test: D1/HU Eurofins-Panlabs selectivity data (BI); conditions: Compound concentration 10.0 uM
[14] = molecular target: Dual specificity mitogen-activated protein kinase kinase 7 (Homo sapiens) (UniProt O14733); conditions: Compound concentration 1000.0 nM
Dual specificity mitogen-activated protein kinase kinase 7 (Homo sapiens), sequence (O14733 whole entry): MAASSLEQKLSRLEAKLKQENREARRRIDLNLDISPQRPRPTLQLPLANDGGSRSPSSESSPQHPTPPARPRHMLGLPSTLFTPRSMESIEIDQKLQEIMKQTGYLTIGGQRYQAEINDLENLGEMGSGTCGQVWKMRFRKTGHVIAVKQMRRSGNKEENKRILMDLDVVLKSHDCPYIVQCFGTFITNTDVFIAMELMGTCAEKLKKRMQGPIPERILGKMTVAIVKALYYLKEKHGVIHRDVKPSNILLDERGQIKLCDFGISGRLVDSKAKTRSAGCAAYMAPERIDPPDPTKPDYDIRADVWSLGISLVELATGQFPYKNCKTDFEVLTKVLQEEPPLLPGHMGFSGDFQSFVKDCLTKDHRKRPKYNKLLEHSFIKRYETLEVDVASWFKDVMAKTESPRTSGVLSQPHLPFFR

[15] = molecular target: Ribosomal protein S6 kinase beta-1 (Homo sapiens) (UniProt P23443); conditions: Compound concentration 1000.0 nM
Ribosomal protein S6 kinase beta-1 (Homo sapiens), sequence (P23443 whole entry, looked up): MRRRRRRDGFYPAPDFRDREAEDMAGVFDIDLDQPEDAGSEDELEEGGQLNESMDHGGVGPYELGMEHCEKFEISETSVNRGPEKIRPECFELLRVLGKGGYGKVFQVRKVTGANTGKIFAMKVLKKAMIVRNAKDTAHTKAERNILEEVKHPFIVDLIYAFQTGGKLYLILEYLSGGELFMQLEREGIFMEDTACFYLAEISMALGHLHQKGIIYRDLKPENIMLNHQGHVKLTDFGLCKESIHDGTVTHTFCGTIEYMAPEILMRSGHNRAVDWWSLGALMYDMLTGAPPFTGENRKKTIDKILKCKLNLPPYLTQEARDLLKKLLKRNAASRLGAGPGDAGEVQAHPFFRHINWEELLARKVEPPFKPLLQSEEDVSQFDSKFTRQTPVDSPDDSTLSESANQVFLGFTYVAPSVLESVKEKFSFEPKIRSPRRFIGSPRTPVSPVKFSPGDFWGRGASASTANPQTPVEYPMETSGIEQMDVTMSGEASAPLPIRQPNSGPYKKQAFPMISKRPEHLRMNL

[16] = molecular target: Sigma non-opioid intracellular receptor 1 (Homo sapiens) (UniProt Q99720); conditions: Compound concentration 10.0 uM
Sigma non-opioid intracellular receptor 1 (Homo sapiens), sequence (Q99720 whole entry): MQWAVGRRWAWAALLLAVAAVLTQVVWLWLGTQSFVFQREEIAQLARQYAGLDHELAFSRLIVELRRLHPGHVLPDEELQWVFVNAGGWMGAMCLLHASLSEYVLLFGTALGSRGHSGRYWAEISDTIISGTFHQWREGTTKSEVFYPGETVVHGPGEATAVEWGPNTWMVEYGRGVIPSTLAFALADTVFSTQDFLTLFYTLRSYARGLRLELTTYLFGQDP

[17] = molecular target: T2, Muscarinic acetylcholine receptor M2 (Homo sapiens) (UniProt P08172); test: M2/HU Eurofins-Panlabs selectivity data (BI); conditions: Compound concentration 10.0 uM
T2 sequence (whole entry): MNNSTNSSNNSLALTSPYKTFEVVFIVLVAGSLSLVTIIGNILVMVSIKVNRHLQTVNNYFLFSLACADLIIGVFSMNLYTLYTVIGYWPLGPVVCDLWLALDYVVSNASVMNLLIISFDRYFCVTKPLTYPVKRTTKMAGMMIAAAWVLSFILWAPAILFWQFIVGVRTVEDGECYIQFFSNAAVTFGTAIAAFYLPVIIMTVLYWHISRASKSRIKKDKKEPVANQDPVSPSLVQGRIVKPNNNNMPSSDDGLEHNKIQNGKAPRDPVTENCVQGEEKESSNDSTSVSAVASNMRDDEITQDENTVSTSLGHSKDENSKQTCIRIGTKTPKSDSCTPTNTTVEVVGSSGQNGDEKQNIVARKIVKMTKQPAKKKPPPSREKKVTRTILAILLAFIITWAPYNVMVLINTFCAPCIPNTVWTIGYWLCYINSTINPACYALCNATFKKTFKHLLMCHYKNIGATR

[18] = molecular target: Ribosomal protein S6 kinase alpha-1 (Homo sapiens) (UniProt Q15418); conditions: Compound concentration 1000.0 nM
[19] = molecular target: Serine/threonine-protein kinase PLK1 (Homo sapiens) (UniProt P53350); conditions: Compound concentration 1000.0 nM
[20] = molecular target: Histamine H2 receptor (Homo sapiens) (UniProt P25021); conditions: Compound concentration 10.0 uM
[21] = molecular target: Calcium/calmodulin-dependent protein kinase type 1B (Homo sapiens) (UniProt Q6P2M8); conditions: Compound concentration 1000.0 nM
Calcium/calmodulin-dependent protein kinase type 1B (Homo sapiens), sequence (Q6P2M8 whole entry): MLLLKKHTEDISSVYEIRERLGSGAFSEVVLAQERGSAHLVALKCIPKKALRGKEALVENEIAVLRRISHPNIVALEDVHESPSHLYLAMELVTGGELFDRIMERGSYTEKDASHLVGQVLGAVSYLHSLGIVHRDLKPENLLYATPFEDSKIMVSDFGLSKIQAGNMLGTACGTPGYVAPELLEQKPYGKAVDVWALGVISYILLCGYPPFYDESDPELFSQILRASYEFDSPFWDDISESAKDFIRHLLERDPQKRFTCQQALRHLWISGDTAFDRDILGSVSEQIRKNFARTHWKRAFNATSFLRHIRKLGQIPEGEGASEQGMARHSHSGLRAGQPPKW

[22] = molecular target: Protein kinase C eta type (Homo sapiens) (UniProt P24723); conditions: Compound concentration 1000.0 nM
Protein kinase C eta type (Homo sapiens), sequence (P24723 whole entry): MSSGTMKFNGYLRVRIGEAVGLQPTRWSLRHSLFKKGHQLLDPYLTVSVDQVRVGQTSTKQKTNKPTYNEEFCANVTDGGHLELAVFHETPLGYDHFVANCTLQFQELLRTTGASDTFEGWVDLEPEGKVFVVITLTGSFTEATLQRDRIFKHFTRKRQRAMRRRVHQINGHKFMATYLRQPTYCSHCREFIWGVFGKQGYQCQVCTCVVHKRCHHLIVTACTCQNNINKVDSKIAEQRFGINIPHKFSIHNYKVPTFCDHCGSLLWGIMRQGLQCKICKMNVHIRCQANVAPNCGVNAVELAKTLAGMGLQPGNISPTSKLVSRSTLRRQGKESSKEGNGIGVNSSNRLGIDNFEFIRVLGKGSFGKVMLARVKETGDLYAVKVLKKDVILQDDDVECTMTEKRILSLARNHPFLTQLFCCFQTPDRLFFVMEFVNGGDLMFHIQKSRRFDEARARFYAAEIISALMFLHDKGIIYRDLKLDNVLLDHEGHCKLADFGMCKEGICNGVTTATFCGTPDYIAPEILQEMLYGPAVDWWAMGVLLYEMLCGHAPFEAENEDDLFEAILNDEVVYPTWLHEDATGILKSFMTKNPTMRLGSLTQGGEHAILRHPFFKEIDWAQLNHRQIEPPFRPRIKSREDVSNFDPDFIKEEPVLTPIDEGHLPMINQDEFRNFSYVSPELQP

[23] = molecular target: Tyrosine-protein kinase receptor TYRO3 (Homo sapiens) (UniProt Q06418); conditions: Compound concentration 1000.0 nM
[24] = molecular target: Voltage-dependent L-type calcium channel subunit alpha-1C (DHP site) (Rattus norvegicus, UniProt P22002); test: CA+/DHPSI/RA Eurofins-Panlabs selectivity data (BI); conditions: compound concentration 10 uM, read-out: % Ctrl
[25] = molecular target: Serine/threonine-protein kinase mTOR (Homo sapiens) (UniProt P42345); conditions: Compound concentration 1000.0 nM
[26] = molecular target: Sodium-dependent noradrenaline transporter (Homo sapiens) (UniProt P23975); test: NETRANS/H Eurofins-Panlabs selectivity data (BI); conditions: Compound concentration 10.0 uM
[27] = molecular target: Interferon-induced, double-stranded RNA-activated protein kinase (Homo sapiens) (UniProt P19525); conditions: Compound concentration 1000.0 nM
[28] = molecular target: Sodium-dependent serotonin transporter (Homo sapiens) (UniProt P31645); conditions: Compound concentration 10.0 uM
[29] = molecular target: Alpha-1D adrenergic receptor (Homo sapiens) (UniProt P25100); conditions: Compound concentration 10.0 uM
[30] = molecular target: Glutamate receptor ionotropic, NMDA 2A (Rattus norvegicus) (UniProt Q00959); test: NMDAPHSI/R Eurofins-Panlabs selectivity data (BI); conditions: Compound concentration 10.0 uM
[31] = molecular target: Alpha-2A adrenergic receptor (Homo sapiens) (UniProt P08913); test: ALPHA2A/H Eurofins-Panlabs selectivity data (BI); conditions: Compound concentration 10.0 uM
[32] = system: Tyrosine-protein kinase ABL1 (Homo sapiens), P00519 [Y253F]; conditions: Compound concentration 1000.0 nM
Histamine H4 receptor = Histamine H4 receptor (Homo sapiens, UniProt Q9H3N8); test: GPCRScan assay: inhibition of H4; set-up: radioligand conc. used [nm] 1.0 – 5.0, parental cells HEK T
[33] = molecular target: Delta-type opioid receptor (Homo sapiens) (UniProt P41143); conditions: Compound concentration 10.0 uM
[34] = molecular target: Peripheral plasma membrane protein CASK (Homo sapiens) (UniProt O14936); conditions: Compound concentration 1000.0 nM
[35] = molecular target: Activin receptor type-1B (Homo sapiens) (UniProt P36896); conditions: Compound concentration 1000.0 nM
[36] = molecular target: Sigma intracellular receptor 2 (Homo sapiens, UniProt Q5BJF2); test: GPCRScan assay: inhibition of Sigma 2; set-up: radioligand conc. used [nm] 5.0, parental cells HEKT
Fatty acid synthase [37] = molecular target: T1, Fatty acid synthase; test: Human FAS enzyme assay
[38] = system: Tyrosine-protein kinase ABL1 (Homo sapiens), P00519 [F317I]; conditions: Compound concentration 1000.0 nM
[39] = molecular target: Ribosomal protein S6 kinase alpha-5 (Homo sapiens) (UniProt O75582); conditions: Compound concentration 1000.0 nM

Mitogen-activated protein kinase kinase kinase 9 (Homo sapiens), sequence (P80192 whole entry, looked up): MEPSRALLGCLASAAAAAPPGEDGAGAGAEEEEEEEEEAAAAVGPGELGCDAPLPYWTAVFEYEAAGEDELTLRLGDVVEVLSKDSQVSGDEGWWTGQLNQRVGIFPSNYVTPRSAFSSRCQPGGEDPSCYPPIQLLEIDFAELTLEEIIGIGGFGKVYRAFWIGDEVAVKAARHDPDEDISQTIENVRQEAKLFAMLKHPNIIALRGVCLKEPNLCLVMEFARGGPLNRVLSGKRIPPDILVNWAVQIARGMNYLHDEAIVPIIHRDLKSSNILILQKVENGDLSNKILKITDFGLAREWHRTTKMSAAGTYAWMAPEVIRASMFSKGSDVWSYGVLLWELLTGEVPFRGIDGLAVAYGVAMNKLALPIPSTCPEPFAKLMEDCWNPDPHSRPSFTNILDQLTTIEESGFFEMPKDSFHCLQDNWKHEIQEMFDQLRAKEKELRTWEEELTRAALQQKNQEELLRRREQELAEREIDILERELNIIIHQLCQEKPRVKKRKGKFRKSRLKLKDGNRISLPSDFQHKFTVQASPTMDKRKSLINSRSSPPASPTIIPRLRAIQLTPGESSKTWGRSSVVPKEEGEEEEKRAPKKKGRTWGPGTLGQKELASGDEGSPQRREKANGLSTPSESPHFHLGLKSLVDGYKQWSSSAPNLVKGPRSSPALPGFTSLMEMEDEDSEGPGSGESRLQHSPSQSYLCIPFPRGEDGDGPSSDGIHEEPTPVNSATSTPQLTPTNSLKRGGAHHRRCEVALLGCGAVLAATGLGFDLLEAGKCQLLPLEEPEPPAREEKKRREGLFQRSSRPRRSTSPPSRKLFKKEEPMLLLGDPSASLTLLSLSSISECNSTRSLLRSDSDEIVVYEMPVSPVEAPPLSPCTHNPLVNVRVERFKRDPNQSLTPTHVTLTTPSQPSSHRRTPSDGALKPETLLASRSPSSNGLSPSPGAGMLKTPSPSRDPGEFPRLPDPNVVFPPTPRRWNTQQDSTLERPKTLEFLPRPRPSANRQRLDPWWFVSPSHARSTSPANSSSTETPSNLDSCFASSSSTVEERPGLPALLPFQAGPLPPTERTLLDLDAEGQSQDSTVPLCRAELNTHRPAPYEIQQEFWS

Row | SMILES | residual activity [1] [%] | residual activity [3] [%] | residual activity [4] [%] | residual activity [5] [%] | residual activity [7] [%] | residual activity [8] [%] | residual activity [9] [%] | residual activity [14] [%] | residual activity [15] [%] | inhibition [16] [%] | residual activity [18] [%] | residual activity [19] [%] | residual activity [21] [%] | residual activity [22] [%] | residual activity [23] [%] | residual activity [25] [%] | residual activity [27] [%] | inhibition [28] [%] | other results
1 | CCC(=O)N[C@H]1CC[C@@H](C(=O)N(C)c2ccc(-c3nc4ccccc4o3)cc2)C1 [BI 99179] | 100 | 83 | 89 | 100 | 100 | 85 | 78 | 82 | 99 | 9.78 | 100 | 97 | 92 | 96 | 92 | 92 | 100 | 32.8 | residual activity [2]: 96%; IC50 (Fatty acid synthase [6]): 180 nM (active); residual activity [10]: 95%; inhibition [11]: -6.53%; residual activity [12]: 101%; residual activity [13]: 93%; residual activity [17]: 90%; inhibition [20]: -1.25%; activity at 10 µM [24]: 93% (not active); residual activity [26]: 91%; inhibition [29]: 50%; residual activity [30]: 101%; residual activity [31]: 98%
2 | CCC(=O)N[C@@H]1CC[C@H](C(=O)N(C)c2ccc(-c3nc4ccccc4o3)cc2)C1 [BI 99990] | 100 | 96 | 100 | 94 | 100 | 100 | 100 | 98 | 93 | 38.3 | 100 | 95 | 100 | 95 | 82 | 99 | 100 | 20.2 | residual activity [32]: 95%; Ki (Histamine H4 receptor): 1630 nM; inhibition [33]: -0.0188%; residual activity [34]: 83%; residual activity [35]: 100%; Ki [36]: 396 nM; IC50 (Fatty acid synthase [37]): > 3000 nM (not active); residual activity [38]: 87%; residual activity [39]: 75%
